Source: publication PMC5362474 (Oncotarget, 2017)

How the values were obtained:
HepG2 cells = test: MTT proliferation assay on HepG2 cells; type: cell-based; details: Homo sapiens
Protocol: (§1) MTT assay was then applied at 24 h, 48 h. […] However, all the compounds were active against Bel-7402, HepG2, A549 and HeLa cells to some extent. […] Before we began to design these compounds, we carefully studied these references. […] Hu C T, et al., Wang SY, et al. and Xie B, et al. reported that HepG2 was inhibited by inhibiting c-Met/HGF signaling pathway. […] Further research works on activities are currently under investigation and will be reported in due course. […] Proliferation of cells was evaluated by MTT assay. Cells were inoculated at 1.0 × 10^4 cells/mL with 200 μL in each well of 96-well plate and allowed to adhere to the plates overnight. […] After removal of the medium, cells were treated with 150 μL of DMSO and shaken for 15 min to completely dissolve the formazan crystals. The absorbances at 590 nm of the dissolved solutions were detected using a SpectraMAX190 microplate reader (Molecular Devices, USA).

Bel-7402 cells = test: MTT proliferation assay on Bel-7402 cells; type: cell-based; details: Homo sapiens
Protocol: as §1

A549 cells = test: MTT proliferation assay on A549 cells; type: cell-based; details: Homo sapiens
Protocol: as §1

Hela cells = test: MTT proliferation assay on HeLa cells; type: cell-based; details: Homo sapiens
Protocol: as §1

[1] = target: T1, recombinant human c-Met residues 974-end (Homo sapiens, UniProt P08581); test: Inhibition of c-Met kinase (TR-FRET); type: biochemical; details: for inhibition at 0.19 µM / inhibition at 0.39 µM / inhibition at 0.78 µM / inhibition at 1.56 µM / inhibition at 3.12 µM / inhibition at 6.25 µM / inhibition at 12.5 µM / inhibition at 25 µM / inhibition at 50 µM / inhibition at 100 µM: read-out: Inhibitory rate on c-Met kinase; for inhibition at 12.5 µM: 12.50 μM; for IC50: TR-FRET, read-out: IC50 against c-Met kinase; for c-Met Inhibition rate (%): concentration not given
T1 construct: recombinant human c-Met residues 974-end; 6His; purchased Millipore
T1 sequence (P08581 974-1390 limits assumed): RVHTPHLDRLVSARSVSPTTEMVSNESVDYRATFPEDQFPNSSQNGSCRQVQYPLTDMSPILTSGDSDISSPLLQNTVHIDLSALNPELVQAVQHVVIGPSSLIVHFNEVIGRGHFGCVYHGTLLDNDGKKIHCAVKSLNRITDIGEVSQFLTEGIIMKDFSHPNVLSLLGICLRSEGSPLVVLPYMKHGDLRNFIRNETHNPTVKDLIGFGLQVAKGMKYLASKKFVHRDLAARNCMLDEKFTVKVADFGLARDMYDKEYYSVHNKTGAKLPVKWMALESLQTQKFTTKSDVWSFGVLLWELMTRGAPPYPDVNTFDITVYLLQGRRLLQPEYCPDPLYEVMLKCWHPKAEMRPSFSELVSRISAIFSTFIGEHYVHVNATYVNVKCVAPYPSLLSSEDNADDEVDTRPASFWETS
Protocol: The inhibitions of c-Met kinase were investigated referred to a published literature. The IC50 values were detected using TR-FRET. 50 nM 6 His-tagged recombinant human c-Met residues 974-end (Millipore) was cultured in medium containing 2.5 m mol/L MnCl2, 10 m mol/L MgCl2, 20 m mol/L Tris, 2 m mol/L DTT and 0.01% Tween 20 with 5 m mol/L ATP and 200 n mol/L 5FAM-KKK -[…]-NH2 with 25 μL at room temperature for 60 min. Compounds were made up to 100 μM solutions and were tested with 10 concentration gradients by two times dilutions. Each group was tested for three times Reactions were termined by IMAP stop solution. Plates were incubated for an overnight and analyzed by using AiphaQuest.

Compound | IC50 (HepG2 cells; 24 h) [µM] | IC50 (HepG2 cells; 48 h) [µM] | IC50 (Bel-7402 cells; 24 h) [µM] | IC50 (Bel-7402 cells; 48 h) [µM] | IC50 (A549 cells; 24 h) [µM] | IC50 (A549 cells; 48 h) [µM] | IC50 (Hela cells; 24 h) [µM] | IC50 (Hela cells; 48 h) [µM] | inhibition at 0.19 µM [1] [%] | inhibition at 0.39 µM [1] [%] | inhibition at 0.78 µM [1] [%] | inhibition at 1.56 µM [1] [%] | inhibition at 3.12 µM [1] [%] | inhibition at 6.25 µM [1] [%] | inhibition at 12.5 µM [1] [%] | inhibition at 25 µM [1] [%] | inhibition at 50 µM [1] [%] | inhibition at 100 µM [1] [%] | IC50 [1] [µM] | c-Met Inhibition rate (%) [1] [%]
CC(C)=C1C/C=C(\C)CC/C=C(\C)CC1OC(=O)c1cccc(C)c1 (centres unmarked) [Compound 3c, (3E,7E)-3,7-dimethyl-10-(propan-2-ylidene)cyclodeca-3,7-dien-1-yl-3-methylbenzoate] | 70.2 ± 0.87 | 67.84 ± 0.48 | 75.5 ± 1.05 | 78.55 ± 0.51 | 88.52 ± 0.53 | 87.2 ± 0.94 | 84.1 ± 0.71 | 82.54 ± 0.64 | 33.8 ± 0.45 | 42.6 ± 0.51 | 48 ± 0.62 | 59.6 ± 0.66 | 64.5 ± 0.73 | 70 ± 0.81 | 73.79 ± 0.69 | 78.9 ± 0.87 | 83.7 ± 0.95 | 87.4 ± 1.2 | 0.83 | 47
CC(C)=C1C/C=C(\C)CC/C=C(\C)CC1OC(=O)c1ccc(C(F)(F)F)cc1 (centres unmarked) [Compound 3d, (3E,7E)-3,7-dimethyl-10-(propan-2-ylidene)cyclodeca-3,7-dien-1-yl-4-(trifluoromethyl)benzoate] | 74.7 ± 0.99 | 78.85 ± 0.77 | 80.1 ± 1.19 | 77.56 ± 0.77 | 93.48 ± 0.79 | 95.9 ± 0.97 | 91.25 ± 0.87 | 93.31 ± 0.9 | 31.56 ± 0.27 | 40.88 ± 0.35 | 47.08 ± 0.44 | 59.03 ± 0.57 | 64.22 ± 0.59 | 69 ± 0.74 | 75.5 ± 0.88 | 80.6 ± 0.84 | 85.4 ± 0.96 | 87.7 ± 0.95 | 0.92 | 38
CC(C)=C1C/C=C(\C)CC/C=C(\C)CC1OC(=O)/C=C\c1ccccc1 (centres unmarked) [Compound 3e, (Z)-(3E,7E)-3,7-dimethyl-10-(propan-2-ylidene)cyclodeca-3,7-dien-1-yl-3-phenylacrylate] | 72.48 ± 0.64 | 69.98 ± 0.68 | 75.9 ± 0.81 | 79.2 ± 0.89 | 90.11 ± 0.75 | 88.21 ± 0.81 | 86.55 ± 0.8 | 88.24 ± 0.84 | 28.28 ± 0.22 | 42.75 ± 0.35 | 48.01 ± 0.39 | 61.4 ± 0.64 | 67.5 ± 0.77 | 70.31 ± 0.59 | 75.7 ± 0.78 | 80 ± 0.91 | 85.3 ± 0.87 | 88.4 ± 0.99 | 0.87 | 41

Results, then the compound that gave them:

IC50 (HepG2 cells; 24 h) [µM] | IC50 (HepG2 cells; 48 h) [µM] | IC50 (Bel-7402 cells; 24 h) [µM] | IC50 (Bel-7402 cells; 48 h) [µM] | IC50 (A549 cells; 24 h) [µM] | IC50 (A549 cells; 48 h) [µM] | IC50 (Hela cells; 24 h) [µM] | IC50 (Hela cells; 48 h) [µM] | inhibition at 0.19 µM [1] [%] | inhibition at 0.39 µM [1] [%] | inhibition at 0.78 µM [1] [%] | inhibition at 1.56 µM [1] [%] | inhibition at 3.12 µM [1] [%] | inhibition at 6.25 µM [1] [%] | inhibition at 12.5 µM [1] [%] | inhibition at 25 µM [1] [%] | inhibition at 50 µM [1] [%] | inhibition at 100 µM [1] [%] | IC50 [1] [µM] | c-Met Inhibition rate (%) [1] [%] | Compound
68.2 ± 0.69 | 71.5 ± 0.82 | 75.9 ± 0.96 | 74.2 ± 0.83 | 84.85 ± 0.71 | 81.9 ± 0.88 | 83.64 ± 0.73 | 83.78 ± 0.76 | 35.6 ± 0.44 | 46.9 ± 0.51 | 54.47 ± 0.47 | 63.4 ± 0.66 | 67.05 ± 0.59 | 72.56 ± 0.67 | 77.8 ± 0.81 | 81.24 ± 0.77 | 86 ± 0.93 | 88.8 ± 1.11 | 0.56 | 56 | CC(C)=C1C/C=C(\C)CC/C=C(\C)CC1OC(=O)c1ccc(C)cc1 (centres unmarked) [Compound 3b, (3E,7E)-3,7-dimethyl-10-(propan-2-ylidene)cyclodeca-3,7-dien-1-yl-4-methylbenzoate]
170 ± 2.07 | 175 ± 1.88 | 173.5 ± 1.53 | 177 ± 1.97 | 180 ± 2.14 | 177 ± 1.87 | 160.7 ± 1.54 | 168 ± 1.81 | 23.4 ± 0.33 | 39.1 ± 0.45 | 47 ± 0.55 | 58.8 ± 0.61 | 65.4 ± 0.67 | 69.2 ± 0.77 | 73.7 ± 0.89 | 77.5 ± 0.97 | 82.1 ± 1.21 | 88 ± 1.01 | 1.15 | 27 | CC(C)=C1C/C=C(\C)CC/C=C(\C)CC1=O [Compound 1, germacrone, reference compound]
155 ± 1.75 | 161.5 ± 1.32 | 167 ± 1.91 | 166 ± 1.83 | 177 ± 1.8 | 185 ± 1.99 | 157.3 ± 1.47 | 163 ± 1.73 | 20 ± 0.27 | 34.9 ± 0.37 | 43.1 ± 0.52 | 55.2 ± 0.61 | 59.88 ± 0.53 | 64.16 ± 0.64 | 69.98 ± 0.59 | 74.21 ± 0.69 | 78.2 ± 0.88 | 81.2 ± 0.94 | 1.77 | 23 | CC(C)=C1C/C=C(\C)CC/C=C(\C)CC1O (centres unmarked) [Compound 2, (3E,7E)-3,7-dimethyl-10-(propan-2-ylidene)cyclodeca-3,7-dienol]
147.7 ± 1.47 | 152 ± 1.71 | 157.3 ± 1.33 | 166.2 ± 1.51 | 162.2 ± 1.55 | 169 ± 1.74 | 149.3 ± 1.33 | 153 ± 1.65 | 26.3 ± 0.37 | 40 ± 0.43 | 47.2 ± 0.57 | 58.5 ± 0.69 | 65 ± 0.74 | 69 ± 0.76 | 74.6 ± 0.81 | 79.3 ± 0.85 | 84.3 ± 0.93 | 86.9 ± 0.97 | 1.06 | 31 | CC(=O)OC1C/C(C)=C/CC/C(C)=C/CC1=C(C)C (centres unmarked) [Compound 3a, (3E,7E)-3,7-dimethyl-10-(propan-2-ylidene)cyclodeca-3,7-dien-1-yl-acetate]
